Values quoted from earlier work as cited in patent US20200009266A1, “IN VIVO GENE THERAPY FOR IMMUNE DEFICIENCIES” (priority 2017, published 2020).

What was measured:
circulating CD34+ cells = conditions: AMD3100 alone, adult dogs
[1] = tested on: peripheral blood lymphocytes; conditions: rhesus macaques

In the case of c1cc(CN2CCCNCCNCCCNCC2)ccc1CN1CCCNCCNCCCNCC1 [AMD3100], the “time of peak mobilization post treatment” value (circulating CD34+ cells) is listed as 8 to 10 h, the tolerability of treatment (circulating CD34+ cells) is listed as “well tolerated” and the “lymphocyte numbers in peripheral blood” value [1] is listed as “increased numbers of B and T lymphocytes”.
